“Also recorded” adds a separate entry of the source. Read-outs that look alike come from different tables or passages of the source. Square brackets hold non-standard residues; d marks the D form. Ends that are not written are not given here. * marks the point of attachment. Biotin = O=C1N[C@H]2[C@H](CS[C@H]2CCCCC(=O)*)N1; Ahx = NCCCCCC(=O)O
Assays:
[1] = system: antibodies in individual human sera (e.g. serum 034960); test: Tettox ELISA of biotinylated peptides on individual human sera; format: binding; conditions: for ELISA OD SERUM 034960: human serum 034960 diluted 100x
Protocol: a 96-wells plate (preferably from Euro-Diagnostica, Arnhem, The Netherlands) is coated with streptavidin. The streptavidin coated 96 wells plate is blocked with PBS containing 5% BSA (200 μl/well, 1 h, room temperature). Subsequently, the plate is washed three times with PBS containing 0.05% TWEEN20® (polysorbate 20). A biotinylated peptide is coated by 1 h incubation at room temperature with 100 μl/well of a 2 μg/ml solution of the biotinylated peptide in PBS containing 1% BSA. The plate is washed three times with PBS containing 0.05% TWEEN20® (polysorbate 20) followed by incubation for 1 h at room temperature with 100 μl serum from […] a human subject as defined above (preferably having a high titer of anti-TTd antibodies) that had been diluted at least 100, 200, 400, 500 or 1000 times and preferably not more than 100,000, 10,000, 7,500, 5,000 or 2,500 times with PBS containing 1% BSA. Then the plate is washed three times with PBS containing 0.05% TWEEN20®(polysorbate 20). Each well is incubated for 1 h at room temperature with a HRP-conjugated IgG antibody (mouse anti-human IgG-HRP monoclonal, clone G18-145, cat no 555788, Becton Dickinson, 100 μl/well of a 1000× dilution in PBS containing 0.05% TWEEN20® (polysorbate 20)) after which the plate is washed three times with PBS containing 0.05% TWEEN20® (polysorbate 20). Development is performed with 2,2′-azino-di-(3-ethylbenzthiazoline sulfonic acid), ABTS+H2O2 1/1000, 100 μl/well. Optical density is measured at 415 nm with a BIO-RAD, model 680, microplate reader. In each plate, preferably a negative contol is included, more preferably at least in triplicate. A preferred negative contol is serum from a human subject without detectable anti-TTd antibodies. Another preferred negative control is a solution of BSA. A peptide according to (ii) above is a peptide according to the invention if it is bound by antibodies in at least 40, 45, 50, 55, 60, 65, 70, 75, 80, 85, 87, 90, 91, 92, 93, 94, 95, 96, 97, 98, 99% most preferably 100% of the tested human serum samples. A peptide is considered to be bound by antibodies in a serum sample if the determined optical density for that particular serum sample is at least 2.0, more preferably 2.5, 3.0, 3.5 or more times higher as compared to the optical density that is determined for the negative control.
Streptavidin coated 96 wells plates (Euro-Diagnostica) were blocked with PBS containing 5% BSA (200 μl/well, 1 h, room temperature). Plates were washed three times with PBS containing 0.05% TWEEN20® (polysorbate 20). Coating of the biotinylated peptides was performed by 1 h incubation at room temperature with 100 μl/well of a 2 μg/ml solution of the biotinylated peptide in PBS containing 1% BSA. Plates were washed three times with PBS containing 0.05% TWEEN20®. Wells were incubated for 1 h at room temperature with either 100 μl TETAQUIN® […] that had been diluted 800× with PBS containing 1% BSA or with 100 μl human serum that had been diluted 100× with PBS containing 1% BSA. Plates were washed three times with PBS containing 0.05% TWEEN20® (polysorbate 20). Each well was incubated for 1 h at room temperature with a HRP-conjugated IgG antibody (mouse anti-human IgG-HRP monoclonal, clone G18-145, cat no 555788, Becton Dickinson, 100 μl/well of a 1000× dilution in PBS containing 0.05% TWEEN20® (polysorbate 20)). Plates were washed three times with PBS containing 0.05% TWEEN20® (polysorbate 20). Development was performed with 2,2′-azino-di-(3-ethylbenzthiazoline sulfonic acid), ABTS+H2O2 1/1000, 100 μl/well. Optical density was measured at 415 nm with a BIO-RAD, model 680, microplate reader.
Thereafter, the inventors tested these 7 peptides on individual sera, because an epitope is needed to which every person makes antibodies.

[2] = system: antibodies in TETAQUIN® (anti-TTd antibodies); format: binding, human
[3] = system: OVA-specific CD8 T cells; test: Systemic antigen-specific T cell priming in TNP-BSA immunized mice challenged with TNP-OVA; format: in vivo
Protocol: Mice were repeatedly immunized with TNP-BSA resulting in high titers of circulating antibodies against the hapten TNP (TNP immunized) or left non-immunized (naïve).
After 1-2 months all mice were injected with naïve OVA-specific CD8 T cells which were labelled with the fluorescent dye CFSE. After 24 hrs the mice were injected with a single dose of TNP-OVA. 3 days later the mice were sacrificed and OVA-specific proliferation of the labelled T cells was analysed in spleen and lymph nodes by flow cytometry (FIGS. 2a and 2b). The symbols represent individual mice. […] Thus, systemic antigen-specific T cell priming can be facilitated by pre-existing circulating antibodies against hapten-epitopes.

[4] = Table 6, conservative substitutions scan of […]

“F I G I T D L K K L E S K I N K V F Z O [0942-33]” was tested, and the “ELISA OD SERUM 034960” value [1, 4] was 0.95 and the “ELISA OD TETAQUIN” value [2, 4] was 1.01.

In the case of “F I G I T E L K K L E S K I Q K V F Z O (FIGITELKKLESKIQKVF[Ahx]K(Biotin)) [0942-42]”, the “ELISA OD SERUM 034960” value [1, 4] is reported as 1.26 and the “ELISA OD TETAQUIN” value [2, 4] is reported as 1.41.

In the case of QYIKANSKFIGITELKKLESKIZO [β32], the “antibodies against the peptide in individual donor sera” value ([1]; 14 individual sera, FIGS. 5a-5n) is reported as “All donors have antibodies”, the “binding to TETAQUIN (screen of overlapping 22-mer TTx peptides)” value ([2]; FIG. 3 (α-chain), FIG. 4 (β-chain)) is reported as “good binding; also recorded: antibodies present” and the OD ([2]; Table 2, length variants of peptide β-32, section 'With linker', […] diluted 800x, OD at 415 nm) is reported as 1.3. The OD ([2]; Table 2, length variants of peptide β-32, section 'Without linker' (sequence listed without Z O), […]) was 1.3 and the “ELISA OD, effect of longer spacer and C- versus N-terminal biotinylation” value ([2]; Table 4, antibody source not given) was 1.16.

In the case of “F I G I T E L K K L E S K I N K V F Z O [0942-09]”, the “ELISA OD SERUM 034960” value ([1]; Table 5, Ala scan of […]) is reported as 1.36, the “ELISA OD SERUM 034960” value [1, 4] is reported as 1.36 and the OD ([2]; Table 3, further length variants and Lys(formyl) variants, […], neg. control OD 0.30) is reported as 2.30. For the same molecule, the “ELISA OD TETAQUIN” value ([2]; Table 5, Ala scan of […]) was 1.26 and the “ELISA OD TETAQUIN” value [2, 4] was 1.26.

For “F I G I T E I K K L E S K I N K V F Z O [0942-34]”, the “ELISA OD SERUM 034960” value [1, 4] was 0.80 and the “ELISA OD TETAQUIN” value [2, 4] was 0.72.

In the case of “F I G I T E L K A L E S K I N K V F Z O [0942-18]”, the “ELISA OD SERUM 034960” value ([1]; Table 5, Ala scan of […]) is reported as 1.22 and the “ELISA OD TETAQUIN” value ([2]; Table 5, Ala scan of […]) is reported as 1.06.

B1: TNP-OVA: non-related protein antigen (OVA) coupled to the hapten TNP (trinitrophenyl group) (conjugate, UniProt P01012 2-386, looked up)
Ovalbumin: GSIGAASMEFCFDVFKELKVHHANENIFYCPIAIMSALAMVYLGAKDSTRTQINKVVRFDKLPGFGDSIEAQCGTSVNVHSSLRDILNQITKPNDVYSFSLASRLYAEERYPILPEYLQCVKELYRGGLEPINFQTAADQARELINSWVESQTNGIIRNVLQPSSVDSQTAMVLVNAIVFKGLWEKAFKDEDTQAMPFRVTEQESKPVQMMYQIGLFRVASMASEKMKILELPFASGTMSMLVLLPDEVSGLEQLESIINFEKLTEWTSSNVMEERKIKVYLPRMKMEEKYNLTSVLMAMGITDVFSSSANLSGISSAESLKISQAVHAAHAEINEAGREVVGSAEAGVDAASVSEEFRADHPFLFCIKHIATNAVLFFGRCVSP
modifications: trinitrophenyl hapten conjugate
B1 was tested, and the “OVA-specific proliferation of CFSE labelled T cells in spleen and lymph nodes” value ([3]; TNP immunized mice vs other groups, single dose TNP-OVA, analysed 3 days later by flow cytometry, P<0.001) was “significantly different” and the “T cell responses against OVA” value ([3]; TNP-BSA immunized mice compared to control mice vaccinated with BSA without TNP) was “much higher level”.

Source: US9522962B2, “Peptides, conjugates and method for increasing immunogenicity of a vaccine” (Academisch Ziekenhuis Leiden h.o.d.n. LUMC, priority 2010, dated 2016)
